Reference: PubChem BioAssay AID179 (DTP/NCI, 2004)
“And” between values parts separate entries of the source, which are not always exact repeats. Identical values can stand only once. The source made the active and inactive calls.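 The calls were made as follows: active = compounds giving half or more protection of infected cells from virus-caused growth loss, again on retest; inactive = the rest.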

Test system: CEM cells HIV-1 protection, formazan growth assay
Assay: NCI AIDS Antiviral Assay
Conditions: for IC50: measured here: growth of uninfected CEM cells
In short: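 Steps: treat uninfected and HIV-1-infected human CEM cells at five drug levels; quantify growth by soluble formazan; retest any compound reaching 50% protection; classify actives from the retest.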

| SMILES | EC50 | IC50 | outcome |
| --- | --- | --- | --- |
| SC1N=C(c2ccco2)N2C(S)N=C(c3ccccc3)N12 (stereo unspecified) | > 200 µM | 182 µM | – |
| CCOC(=O)c1c(-c2ccc(Cl)cc2)c(C#N)c(=S)n(C2OC(COC(C)=O)C(OC(C)=O)C(OC(C)=O)C2OC(C)=O)c1-c1ccccc1 (stereo unspecified) | > 200 µM | 77.6 µM | – |
| COC(=O)Cc1c([C@@H]2Nc3ccccc3[C@H]2CC(=O)OC)[nH]c2ccccc12 | > 200 µM | 30.2 µM | – |
| COC(=O)C(=O)C(/C(=N/N)C(=O)Nc1ccccc1C(N)=O)c1nc2ccc([N+](=O)[O-])cc2[nH]c1=O (stereo unspecified) | > 501 µM | 204 µM | – |
| COC1/C=C\OC2(C)Oc3c(C)c(O)c4c(O)c(c(/C=N/N(Cc5ccccc5)C56CC7CC(CC(C7)C5)C6)c(O)c4c3C2=O)NC(=O)/C(C)=C\C=C\C(C)C(O)C(C)C(O)C(C)C(OC(C)=O)C1C (stereo unspecified) | > 200 µM | 6.92 µM | – |
| CN(C)CCn1nc2n(c(=O)c1=O)CC(=O)N(C)c1ccc(Cl)cc1-2 | > 407 µM | > 407 µM | – |
| N#CC(c1ccccc1)N(CCc1ccccc1)C(=O)Oc1ccccc1 (stereo unspecified) | > 200 µM | > 200 µM | – |
| COc1ccc(N=C(CS(=O)c2ccc(C)cc2)C(F)(F)F)cc1 (stereo unspecified) | > 200 µM | 91.2 µM | – |
| CC1(C)C=C(N2CCN(C3=CC(C)(C)NC(C)(C)C3)CC2)CC(C)(C)N1 | > 182 µM | > 182 µM | – |
| O=C([CH-]C(=O)c1ccccc1)c1ccccc1.[CH2-]C.[CH2-]C.[Tl+3] | > 53.7 µM | > 53.7 µM | – |
| NC1CC=C(COC(=O)C(O)(c2ccccc2)C2CC2)CC1 (stereo unspecified) | > 200 µM | > 200 µM | – |
| O=C(Cn1c2ccc(Br)cc2c2nc3ccccc3nc21)NCc1ccccc1 | > 100 µM | > 100 µM | – |
| COc1ccc(-c2cc(=O)c3c(O)cccc3o2)cc1 | > 200 µM | > 200 µM | – |
| CN(C)C(=N)OCc1ccccc1 | > 200 µM | > 200 µM | – |
| CCOC(=O)C1=C(O)C(=O)c2ccsc2C1=O | > 708 µM | 120 µM | – |
| CCOc1ccccc1NC(=O)C(=O)C1C(=O)Nc2ccccc2S1=O (stereo unspecified) | – | – | inactive |
| CCOC(=O)c1c(O)cn2c1[nH]c1cccc3cccc2c31 | > 100 µM | 25.7 µM | – |
| CCCCCCCCCCCCCC(=O)O[C@@H]1[C@@H](C)[C@@]2(O)[C@@H](C=C(CO)C[C@]3(O)C(=O)C(C)=C[C@@H]23)[C@@H]2C(C)(C)[C@]12OC(C)=O | – | – | active |
| C=CCn1c2c(sc1=S)C(S)N=CN2 (stereo unspecified) | > 107 µM | 42.7 µM | – |
| CC1(C)NC(=O)N(C(C)(C)C(=O)O)C1=O | > 200 µM | > 200 µM | – |
| CON(C)C(=O)CCCO | > 1700 µM | > 1700 µM | – |

| SMILES | EC50 | IC50 | outcome |
| --- | --- | --- | --- |
| NP(N)(=O)Nc1ccccc1 | 10.5 µM | > 200 µM | – |
| CC(C)CCCC(C)[C@H]1CC[C@H]2[C@@H]3CC[C@H]4C[C@@H](CCC=C(c5cc(Cl)c(OCc6ccccc6[N+](=O)[O-])c(C(=O)O)c5)c5cc(Cl)c(OCc6ccccc6[N+](=O)[O-])c(C(=O)O)c5)CC[C@]4(C)[C@H]3CC[C@]12C (stereo partly specified) | > 200 µM and 120 µM | > 200 µM and 166 µM | inactive |
| CC1(C)CN=CC(C)(OCc2ccccc2)C(=O)NC(C)(C)CN=CC(C)(OCc2ccccc2)C(=O)N1 (stereo unspecified) | > 7.24 µM | > 7.24 µM | – |
| O=C(Nc1ccccc1S)OCc1ccccc1 | 34.7 µM | 46.8 µM | – |
| O=C(Cc1ccccc1)N=Nc1c(O)[nH]c2ccccc12 | > 200 µM | > 200 µM | – |
| Cc1ccc(C2=C(O)C(=O)C(c3ccc(C)cc3)=C(O)C2=O)cc1 | > 52.5 µM | 26.3 µM | – |
| CCOC(=O)CNS(=O)(=O)c1ccccc1 | > 200 µM | > 200 µM | – |
| CC1CN=C(N(C(=O)Nc2ccccc2)c2ccc(Cl)c(Cl)c2)S1 (stereo unspecified) | > 200 µM | 138 µM | – |
| C[C@]12CCC(=O)C(O)=C1CCC2=O | – | – | inactive |
| CC1OC(OC2C(O)C(O)C(N=C(N)N)C(O)C2N=C(N)N)C(OC2OC(CO)C(O)C(O)C2N(C)C=N)C1(O)CO (stereo unspecified) | – | – | inactive |
| N#C/C(=C\NC(=S)Nc1ccc(S(=O)(=O)Nc2ccccn2)cc1)C(N)=O | > 200 µM | > 200 µM | – |
| CS(=O)(=O)CS(=O)(=O)OCCCl | > 1050 µM | 182 µM | – |
| CO/C=C/CCCN(CC#N)Cc1ccccc1 | > 27.5 µM | > 27.5 µM | – |
| O=C1CCC2(c3ccccc3)Nc3ccncc3N12 (stereo unspecified) | > 1000 µM | 490 µM | – |
| CCOC(=O)CCC(NC(=O)c1ccc(N=Cc2nc3cc(C(F)(F)F)ccc3nc2-c2ccccc2)cc1)C(=O)OCC (stereo unspecified) | > 5.89 µM | > 5.89 µM | – |
| CC(=O)OC1CCC2(C)C(C1)CC(OC(C)=O)C1C2CC(OC(C)=O)C2(C)C(C(C)CC=C(c3ccccc3)c3ccccc3)CCC12 (stereo unspecified) | > 7.94 µM | 5.01 µM | – |
| CC1=CC(O)(c2ccc(-c3ccccc3Cl)cc2)OC1=O (stereo unspecified) | – | – | inactive |
| COC/C=C\[C@@]1(O)CCCC[C@@H]1CC(OC)OC | > 200 µM | 1.23 µM | – |
| C=CCCCC12CCCc3cccc(c31)NC2=S (stereo unspecified) | > 200 µM | 14.1 µM | – |
| C/C(=C/CNc1ncnc2c1ncn2CCC#N)CO | > 200 µM | > 200 µM | – |
| CC(C(=O)NCNC(=O)c1ccccc1)C(=O)NCc1ccccc1 (stereo unspecified) | – | – | inactive |

| SMILES | EC50 | IC50 | outcome |
| --- | --- | --- | --- |
| C/C(O)=C(\C=N\C(N)=S)C(=O)Nc1ccc(Cl)cc1 | > 200 µM | > 100 µM | – |
| CC(=O)C1C(=O)C(C(C)=O)C2C3C=CC(C3)C12 (stereo unspecified) | > 200 µM | 74.1 µM | – |
| COc1cccc(C2c3cc4c(cc3OC(N3CCOCC3)C2C)OCO4)c1OC (stereo unspecified) | > 200 µM | 1.7 µM | – |
| Cc1[nH]c2ccccc2c1C1=CC(=O)N(c2ccccc2)C1=O | > 200 µM | 8.71 µM | – |
| CC1(C)CC(=O)C2=C(C1)OC1=C(C(=O)CC(C)(C)C1)C2C(O)C(O)C(O)CO (stereo unspecified) | > 200 µM | > 200 µM | – |
| O=C1C=C(Nc2ccc(Br)cc2)c2ccccc2C1=O | > 4.37 µM | > 4.37 µM | – |
| Cc1c(/C=N/NC(=S)Nc2ccccc2)c(=O)n(-c2ccccc2)n1C | > 200 µM | > 200 µM | – |
| Cc1nn(-c2ccccc2)c2c1S(=O)(=O)c1ccccc1-2 | > 112 µM | 69.2 µM | – |
| Cc1ccc([N+](=O)[O-])cc1P(=O)(O)c1cc([N+](=O)[O-])ccc1C | > 200 µM | > 200 µM | – |
| CC1(c2nc3ccccc3[nH]2)CCC(C#N)C(C)(C)O1 (stereo unspecified) | > 200 µM | > 200 µM | – |
| C[C@]12CC[C@H](OC(=O)CCC(=O)O)CC1=CC[C@@H]1C2CC[C@@]2(C)C1CC[C@@H]2c1nc(-c2ccccc2)cs1 (stereo partly specified) | > 46.8 µM | 17.4 µM | – |
| NC(=O)CCC(NC(=O)c1ccccc1SC(=O)CCCC[n+]1ccccc1)C(N)=O (stereo unspecified) | 20.4 µM | > 200 µM | – |
| Brc1ccc(N2N=NC3CN(c4ccccc4)CC32)cc1 (stereo unspecified) | > 100 µM | 58.9 µM | – |
| CN1C=Nc2c(ncn2C2CCC(CO)O2)C1O (stereo unspecified) | > 200 µM | > 200 µM | – |
| Nc1c(S(=O)(=O)O)cc(S(=O)(=O)O)c2ccc(N=Nc3ccc(/C=C/c4ccc(N=Nc5ccc6c(S(=O)(=O)O)cc(S(=O)(=O)O)c(N)c6c5O)cc4S(=O)(=O)O)c(S(=O)(=O)O)c3)c(O)c12 | 10.2 µM | 51.3 µM | – |
| CC(/C=C/c1ccccc1)=N/NS(=O)(=O)c1ccc([N+](=O)[O-])cc1 | > 15.1 µM | > 15.1 µM | – |
| Oc1c2cc(Cl)cc1COCc1cc(Cl)cc(c1O)COCc1cc(Cl)cc(c1O)COC2 | > 200 µM | 38.9 µM | – |
| O=C(O)c1ccc(N=Nc2ccc(CCc3ccc(N=Nc4ccc(C(=O)O)cc4O)cc3S(=O)(=O)O)c(S(=O)(=O)O)c2)c(O)c1 | 19.5 µM | 234 µM | – |
| Cc1nc(Nc2nc3ccccc3[nH]2)nc(Cl)c1CCCl | – | – | inactive |
| COC12[C@@H]3N[C@@H]3CN1C1=C(C(=O)C(NCCSSCCNC3=C(C)C(=O)C4=C(C3=O)C(COC(N)=O)[C@]3(OC)C5N[C@@H]5CN43)=C(C)C1=O)[C@@H]2COC(N)=O (stereo partly specified) | > 200 µM | 0.0631 µM | – |
| O=C(Cc1csc(-c2nc(CC(=O)NNc3ccccc3)cs2)n1)NNc1ccccc1 | > 145 µM | > 145 µM | – |

| SMILES | EC50 | IC50 | outcome |
| --- | --- | --- | --- |
| CN(C)CCC(=O)c1ccccc1 | – | – | inactive |
| O=c1[nH]c(SCc2c(Cl)c(Cl)c(Cl)c(Cl)c2Cl)nc(=S)[nH]1 | > 200 µM | 83.2 µM | – |
| CC(=O)NCS(=O)(=O)O | > 200 µM | > 200 µM | – |
| O=C(Nc1ccc(Cl)c(Cl)c1)C(=O)C(C(=O)c1ccccc1F)C1OC(=O)c2ccccc21 (stereo unspecified) | > 195 µM | 14.1 µM | – |
| CCN=Cc1c(O)c(O)c(C(C)C)c2cc(C)c(-c3c(C)cc4c(C(C)C)c(O)c(O)c(C=NCC)c4c3O)c(O)c12 | – | – | inactive |
| CCCCCCCCCCCCCCCCCCSCC12c3ccccc3C(c3ccccc31)C(COS(=O)(=O)O)C2COS(=O)(=O)O (stereo unspecified) | > 100 µM | 64.6 µM | – |
| CC(C)(C)OC(=O)N(CCCCNC(=O)OCc1ccccc1)CCCNC(=O)OCc1ccccc1 | > 200 µM | 4.47 µM | – |
| COC(=O)C1=C(CO)C2C=CC1C2 (stereo unspecified) | – | – | inactive |
| COc1cc(-c2ccc(N=Nc3c(S(=O)(=O)O)cc4cc(S(=O)(=O)O)cc(N)c4c3O)c(OC)c2)ccc1N=Nc1c(S(=O)(=O)O)cc2cc(S(=O)(=O)O)cc(N)c2c1O | – | – | active |
| COc1ccc(/C=C/C(=N/NC(=O)N/N=C(/C=C/c2ccc(OC)cc2)C(C)C)C(C)C)cc1 | > 200 µM | 37.2 µM | – |
| COc1cc(/C=C2\CCC(C)C3=C2NC(=S)NC3c2cc(OC)c(OC)c(OC)c2)cc(OC)c1OC (stereo unspecified) | > 200 µM | 32.4 µM | – |
| COc1cc(/C=C(\NC(=O)c2ccccc2)c2nc3ncncc3[nH]2)cc(OC)c1OC | – | – | inactive |
| O=S1(=O)NNC(=NCc2ccc(Cl)cc2)c2ccccc21 | – | – | inactive |
| Cc1c(-c2c(C)c(=O)c3c(C(C)C)c(=O)c(=O)c(C=O)c-3c2=O)c(O)c2c(C=O)c(O)c(O)c(C(C)C)c2c1O | > 13.2 µM | 7.08 µM | – |
| O=c1ccccc2c(/C=C/c3ccccc3)nn(-c3ccccc3)c12 | – | – | inactive |
| Oc1cc(Br)cc2cc(Cl)cnc12 | > 200 µM | 1.02 µM | – |
| CC1CC2=C(C(=O)O1)C(c1ccccc1)Nc1ccccc1N2 (stereo unspecified) | > 427 µM | 81.3 µM | – |
| Cc1ccc(Sc2ccccc2N)cc1 | > 178 µM | 51.3 µM | – |
| O=C(OC1C#CCSCC#C/C=C\1)c1ccc2c(c1)C(=O)c1ccccc1C2=O (stereo unspecified) | > 200 µM | 69.2 µM | – |
